Laboratory results from US9718804B2, “GSK-3 inhibitors” (BRISTOL-MYERS SQUIBB COMPANY, priority 2013, dated 2017).
pIC50: −log10 of the molar value. Read-outs that look alike come from different tables or passages of the source.

Key:
GSK3β = GSK3β (Homo sapiens, UniProt P49841); assay: GSK3β kinase assay (Caliper LabChip, fluoresceinated peptide substrate); assay type: biochemical; details: for IC50: first value of the cell, 250 pM enzyme, 20 uM ATP, 20 hours at room temperature, read-out: GSK3β/α (nM): GSK3β IC50
Sequence of GSK3β (P49841 whole entry, species assumed): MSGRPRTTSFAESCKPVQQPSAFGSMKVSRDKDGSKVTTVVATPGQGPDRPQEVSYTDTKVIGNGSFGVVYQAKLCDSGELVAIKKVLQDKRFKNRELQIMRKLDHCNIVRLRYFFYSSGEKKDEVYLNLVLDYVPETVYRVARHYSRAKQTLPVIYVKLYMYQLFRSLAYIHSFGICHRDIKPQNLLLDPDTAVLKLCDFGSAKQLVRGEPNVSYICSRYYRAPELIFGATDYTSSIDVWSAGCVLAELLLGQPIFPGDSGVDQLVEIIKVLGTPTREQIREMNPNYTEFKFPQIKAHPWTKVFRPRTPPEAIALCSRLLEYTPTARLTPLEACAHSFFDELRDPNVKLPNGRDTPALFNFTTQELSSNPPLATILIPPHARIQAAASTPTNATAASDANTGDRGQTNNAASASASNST
Experimental: (§1) The kinase assay was performed in V-bottom 384-well plates. […] The reaction was incubated at room temperature for 20 hours and terminated by adding 45 μl of 35 mM EDTA to each sample. The reaction mixture was analyzed on the Caliper LabChip3000 (Caliper, Hopkinton, Mass.) by electrophoretic separation of the unphosphorylated substrate and phosphorylated product. […] Compounds were dissolved at 10 mM in dimethylsulfoxide (DMSO) and evaluated at eleven concentrations. IC50 values were derived by non-linear regression analysis.

GSK3α = GSK3α (Homo sapiens, UniProt P49840); assay: GSK3α kinase assay (Caliper LabChip, fluoresceinated peptide substrate); assay type: biochemical; details: for IC50: second value of the cell, 250 pM enzyme, 20 uM ATP, 20 hours at room temperature, read-out: GSK3β/α (nM): GSK3α IC50
Sequence of GSK3α (P49840 whole entry, species assumed): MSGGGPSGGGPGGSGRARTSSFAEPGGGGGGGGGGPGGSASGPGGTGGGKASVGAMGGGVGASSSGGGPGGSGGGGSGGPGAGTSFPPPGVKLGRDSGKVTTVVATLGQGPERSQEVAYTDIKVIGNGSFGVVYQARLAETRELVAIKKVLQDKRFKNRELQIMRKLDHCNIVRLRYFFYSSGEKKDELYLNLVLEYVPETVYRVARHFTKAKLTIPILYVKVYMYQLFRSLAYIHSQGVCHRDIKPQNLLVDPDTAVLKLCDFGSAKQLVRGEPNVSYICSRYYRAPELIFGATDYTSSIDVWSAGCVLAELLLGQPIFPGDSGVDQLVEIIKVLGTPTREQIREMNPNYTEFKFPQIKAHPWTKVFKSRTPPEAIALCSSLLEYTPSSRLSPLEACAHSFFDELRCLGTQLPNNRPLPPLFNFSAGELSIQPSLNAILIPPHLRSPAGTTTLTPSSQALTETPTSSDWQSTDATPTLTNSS
Experimental: as §1

pTau = pTau assay (no method described); assay type: cell-based

SMILES	IC50 (GSK3β) [nM]	pIC50 (GSK3α)	pIC50 (pTau)	pIC50 (GSK3β)	IC50 (GSK3α) [nM]
O=C(Nc1cnccc1-c1ccc(Cl)cc1)c1ccnc(Nc2ccc(C(F)(F)F)cn2)c1 [Example 51, N-(4-(4-Cholorophenyl)pyridin-3-yl)-2-((5-(trifluoromethyl)pyridin-2-yl)amino)isonicotinamide]	9.9	8.16	6.58		
O=C(Nc1cnc(Cl)cc1-c1ccccc1)c1ccnc(Nc2ccc(C(F)(F)F)cn2)c1 [Example 66, N-(6-Chloro-4-phenylpyridin-3-yl)-2-((5-(trifluoromethyl)pyridin-2-yl)amino)isonicotinamide]	61	7.54	5.23		
O=C(Nc1cnccc1-c1ccccc1)c1ccnc(Nc2cc(C(F)(F)F)ccn2)c1 [Example 3, N-(4-Phenylpyridin-3-yl)-2-((4-(trifluoromethyl)pyridin-2-yl)amino)isonicotinamide]			6.15	8.05	8.7
O=C(Nc1cncc(OCC2CC2)c1)c1ccnc(Nc2cccc(C(F)(F)F)n2)c1 [Example 124, N-(5-(Cyclopropylmethoxy)pyridin-3-yl)-2-((6-(trifluoromethyl)pyridin-2-yl)amino)isonicotinamide]	9.4	8.46	5.44		
O=C(Nc1cncnc1-c1ccccc1)c1ccnc(Nc2ccc(C(F)(F)F)cn2)c1 [Example 193, N-(4-Phenylpyrimidin-5-yl)-2-((5-(trifluoromethyl)pyridin-2-yl)amino)isonicotinamide]	3.6	8.72	6.78		
CC(C)(C#N)c1ccc(Nc2cc(C(=O)Nc3cncc(-c4ccccc4F)c3)ccn2)nc1 [Example 164, 2-((5-(2-Cyanopropan-2-yl)pyridin-2-yl)amino)-N-(5-(2-fluorophenyl)pyridin-3-yl)isonicotinamide]	4.9	8.62	5.51		
O=C(Nc1cnccc1-c1ccc(F)cc1)c1ccnc(Nc2ccc(Cl)cn2)c1 [Example 58, 2-((5-Chloropyridin-2-yl)amino)-N-(4-(4-fluorophenyl)pyridin-3-yl)isonicotinamide]	0.86	9.44	7.24		
CCC1(c2cc(Cl)ncc2NC(=O)c2ccnc(Nc3ccc(C)cn3)c2)OCCO1 [Example 109, N-(6-Chloro-4-(2-ethyl-1,3-dioxolan-2-yl)pyridin-3-yl)-2-((5-methylpyridin-2-yl)amino)isonicotinamide]			7.35	8.74	1.2
CC1(c2cc(Cl)ncc2NC(=O)c2ccnc(Nc3ccc(C(F)(F)F)cn3)c2)CCCO1 (stereo not drawn) [Example 77, N-(6-Chloro-4-(2-methyltetrahydrofuran-2-yl)pyridin-3-yl)-2-((5-(trifluoromethyl)pyridin-2-yl)amino)isonicotinamide]	0.63	9.46	7.51		
O=C(Nc1cncc(-c2ccccc2F)c1)c1ccnc(Nc2cccc(C(F)(F)F)n2)c1 [Example 134, N-(5-(2-Fluorophenyl)pyridin-3-yl)-2-((6-(trifluoromethyl)pyridin-2-yl)amino)isonicotinamide]	3.9	8.82	6.33		
CCc1cccc(Nc2cc(C(=O)Nc3cncc(-c4ccccc4F)c3)ccn2)n1 [Example 138, N-(5-(2-Fluorophenyl)pyridin-3-yl)-2-((6-ethylpyridin-2-yl)amino)isonicotinamide]	3.5	8.66	5.33		
O=C(Nc1cnc(Cl)cc1[S+]([O-])C1CC1)c1ccnc(Nc2ccc(C(F)(F)F)cn2)c1 (stereo not drawn) [Example 180, N-(6-Chloro-4-(cyclopropylsulfinyl)pyridin-3-yl)-2-((5-(trifluoromethyl)pyridin-2-yl)amino)isonicotinamide]	15	8.12	6.10		
CC1CC1COc1cncc(NC(=O)c2ccnc(Nc3cccc(C(F)(F)F)n3)c2)c1 (stereo not drawn) [Example 126, N-(5-((2-Methylcyclopropyl)methoxy)pyridin-3-yl)-2-((6-(trifluoromethyl)pyridin-2-yl)amino)isonicotinamide]	9.7	8.32	5.49		
CC(C)(C)C(=O)Nc1cccc(Nc2cc(C(=O)Nc3cncc(-c4ccccc4F)c3)ccn2)n1 [Example 154, N-(5-(2-Fluorophenyl)pyridin-3-yl)-2-((6-pivalamidopyridin-2-yl)amino)isonicotinamide]	9.2	8.66	5.96		
O=C(Nc1cnc(Cl)cc1SC1CC1)c1ccnc(Nc2ccc(C(F)(F)F)cn2)c1 [Example 176, N-(6-Chloro-4-(cyclopropylthio)pyridin-3-yl)-2-((5-(trifluoromethyl)pyridin-2-yl)amino)isonicotinamide]	11	8.15	5.96		
CCOc1ccncc1NC(=O)c1ccnc(Nc2ccc(C#N)cn2)c1 [Example 16, N-(4-Ethoxypyridin-3-yl)-2-((5-cyanopyridin-2-yl)amino)isonicotinamide]	1.1	9.21	7.92		
O=C(Nc1cnncc1-c1ccccc1)c1ccnc(Nc2ccc(C(F)(F)F)cn2)c1 [Example 198, N-(5-Phenylpyridazin-4-yl)-2-((5-(trifluoromethyl)pyridin-2-yl)amino)isonicotinamide]	6.7	8.54	6.74		
O=C(Nc1cnc(Cl)cc1C(=O)C1CC1)c1ccnc(Nc2ccc(C(F)(F)F)cn2)c1 [Example 92, N-(6-Chloro-4-(cyclopropanecarbonyl)pyridin-3-yl)-2-((5-(trifluoromethyl)pyridin-2-yl)amino)isonicotinamide]	8.8	8.40	5.85		
Cc1nc(Nc2cc(C(=O)Nc3cncc(-c4ccccc4F)c3)ccn2)ccc1C#N [Example 155, 2-((5-Cyano-6-methylpyridin-2-yl)amino)-N-(5-(2-fluorophenyl)pyridin-3-yl)isonicotinamide]	3.6	8.92	6.24		
CC(C)(C)COc1cc(F)ncc1NC(=O)c1ccnc(Nc2ccc(Cl)cn2)c1 [Example 112, 2-((5-Chloropyridin-2-yl)amino)-N-(6-fluoro-4-(neopentyloxy)pyridin-3-yl)isonicotinamide]	5	8.52	6.07		
O=C(Nc1cnccc1C1(O)CCCCC1)c1ccnc(Nc2ccc(C(F)(F)F)cn2)c1 [Example 38, N-(4-(1-Hydroxycyclohexyl)pyridin-3-yl)-2-((5-(trifluoromethyl)pyridin-2-yl)amino)isonicotinamide]	1.1	9.15	8.06		
O=C(Nc1cnccc1Sc1ccccc1)c1ccnc(Nc2ccc(C(F)(F)F)cn2)c1 [Example 172, N-(4-(Phenylthio)pyridin-3-yl)-2-((5-(trifluoromethyl)pyridin-2-yl)amino)isonicotinamide]	5.6	8.96	6.62		
O=C(Nc1cncnc1N1CCOCC1)c1ccnc(Nc2ccc(C(F)(F)F)cn2)c1 [Example 195, N-(4-Morpholinopyrimidin-5-yl)-2-((5-(trifluoromethyl)pyridin-2-yl)amino)isonicotinamide]	17	8.10	6.15		
CCC1(c2cc(Cl)ncc2NC(=O)c2ccnc(Nc3ccccn3)c2)OCCO1 [Example 108, N-(6-Chloro-4-(2-ethyl-1,3-dioxolan-2-yl)pyridin-3-yl)-2-(pyridin-2-ylamino)isonicotinamide]			7.52	8.85	0.95
O=C(Nc1cncc(F)c1-c1ccccc1)c1ccnc(Nc2ccc(C(F)(F)F)cn2)c1 [Example 117, N-(5-Fluoro-4-phenylpyridin-3-yl)-2-((5-(trifluoromethyl)pyridin-2-yl)amino)isonicotinamide]	3	8.85	6.60		
O=C(Nc1cnccn1)c1ccnc(Nc2ccc(C(F)(F)F)cn2)c1 [Example 189, N-(Pyrazin-2-yl)-2-((5-(trifluoromethyl)pyridin-2-yl)amino)isonicotinamide]	11	8.37	5.99		
CC(C)(C)Sc1ccncc1NC(=O)c1ccnc(Nc2ccc(C(F)(F)F)cn2)c1 [Example 174, N-(4-(tert-Butylthio)pyridin-3-yl)-2-((5-(trifluoromethyl)pyridin-2-yl)amino)isonicotinamide]	0.14	10.10	7.57		
O=C(Nc1cnccc1-c1ccccc1F)c1ccnc(Nc2ccc(C(F)(F)F)cn2)c1 [Example 49, N-(4-(2-Fluorophenyl)pyridin-3-yl)-2-((5-(trifluoromethyl)pyridin-2-yl)amino)isonicotinamide]	0.65	9.49	7.28		
O=C(Nc1cnccc1C1OCCO1)c1ccnc(Nc2ccc(C(F)(F)F)cn2)c1 [Example 40, N-(4-(1,3-Dioxolan-2-yl)pyridin-3-yl)-2-((5-(trifluoromethyl)pyridin-2-yl)amino)isonicotinamide]	23	7.34	5.48		
C[C@@H]1CO[C@](c2cc(Cl)ncc2NC(=O)c2ccnc(Nc3ccc(C(F)(F)F)cn3)c2)(C2CC2)O1 [Example 96, N-(6-Chloro-4-((2R,4R)-2-cyclopropyl-4-methyl-1,3-dioxolan-2-yl)pyridin-3-yl)-2-((5-(trifluoromethyl)pyridin-2-yl)amino)isonicotinamide]	0.29	9.80	7.41		
